Data taken from ChEMBL document CHEMBL4184206, “Design, synthesis and evaluate of novel dual FGFR1 and HDAC inhibitors bearing an indazole scaffold” (Bioorg Med Chem, 2018).

Experiments:
[1] = target: T1, Protein deacetylase HDAC6 (Homo sapiens, UniProt Q9UBN7); test: Inhibition of HDAC6 (unknown origin) preincubated for 10 mins followed by Ac-Leu-GlyLys(Ac)-AMC substrate addition measured after 30 mins by fluorescence based assay
T1 sequence (Q9UBN7 whole entry): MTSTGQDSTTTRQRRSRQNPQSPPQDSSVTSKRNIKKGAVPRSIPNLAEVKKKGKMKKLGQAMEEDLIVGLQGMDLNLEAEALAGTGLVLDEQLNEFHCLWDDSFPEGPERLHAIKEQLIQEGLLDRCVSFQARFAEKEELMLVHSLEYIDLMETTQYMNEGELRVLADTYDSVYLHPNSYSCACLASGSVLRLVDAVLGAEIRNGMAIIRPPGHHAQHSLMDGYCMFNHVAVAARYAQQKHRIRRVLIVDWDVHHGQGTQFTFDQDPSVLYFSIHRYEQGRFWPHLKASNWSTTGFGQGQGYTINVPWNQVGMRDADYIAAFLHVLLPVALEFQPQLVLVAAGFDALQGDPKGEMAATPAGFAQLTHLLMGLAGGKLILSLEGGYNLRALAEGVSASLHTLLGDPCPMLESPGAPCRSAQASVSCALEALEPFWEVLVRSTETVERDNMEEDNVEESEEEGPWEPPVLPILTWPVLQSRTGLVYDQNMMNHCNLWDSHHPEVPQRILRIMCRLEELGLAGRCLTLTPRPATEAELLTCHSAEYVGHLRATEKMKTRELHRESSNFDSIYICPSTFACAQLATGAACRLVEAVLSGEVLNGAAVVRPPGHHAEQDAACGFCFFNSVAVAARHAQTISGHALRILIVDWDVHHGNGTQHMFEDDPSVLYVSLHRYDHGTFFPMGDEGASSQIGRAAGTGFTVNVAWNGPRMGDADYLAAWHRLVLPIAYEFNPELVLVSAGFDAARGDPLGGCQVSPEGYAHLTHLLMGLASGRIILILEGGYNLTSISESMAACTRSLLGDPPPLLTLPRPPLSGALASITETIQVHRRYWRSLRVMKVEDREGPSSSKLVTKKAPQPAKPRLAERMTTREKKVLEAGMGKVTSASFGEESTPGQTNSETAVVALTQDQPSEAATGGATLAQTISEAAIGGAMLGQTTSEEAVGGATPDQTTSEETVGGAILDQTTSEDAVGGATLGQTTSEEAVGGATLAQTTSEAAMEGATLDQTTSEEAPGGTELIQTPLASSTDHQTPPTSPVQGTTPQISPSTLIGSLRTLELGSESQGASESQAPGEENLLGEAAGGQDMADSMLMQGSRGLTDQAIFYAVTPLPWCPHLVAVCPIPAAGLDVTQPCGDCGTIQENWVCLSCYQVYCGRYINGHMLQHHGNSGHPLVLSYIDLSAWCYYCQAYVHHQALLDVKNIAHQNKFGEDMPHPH

MCF7 = test: Antiproliferative activity against human MCF7 cells after 48 hrs by CCK-8 assay; details: MCF7, 48 h

Structure (SMILES)	IC50 [1]	IC50 (MCF7)
COc1cccc(-c2ccc3c(NC(=O)c4ccc(C(=O)NO)cc4)n[nH]c3c2)c1F	58 nM	> 100000 nM
O=C(NO)c1ccc(C(=O)Nc2n[nH]c3cc(-c4c(Cl)cccc4Cl)ccc23)cc1	385 nM	> 100000 nM
COc1ccc(F)cc1-c1ccc2c(NC(=O)c3ccc(C(=O)NO)cc3)n[nH]c2c1	64 nM	> 100000 nM
O=C(NO)c1ccc(C(=O)Nc2n[nH]c3cc(-c4ccccc4)ccc23)cc1	38 nM	> 100000 nM
O=C(NO)c1ccc(C(=O)Nc2n[nH]c3cc(-c4ccccc4F)ccc23)cc1	65 nM	45000 nM
CCOc1cccc(-c2ccc3c(NC(=O)c4ccc(C(=O)NO)cc4)n[nH]c3c2)c1	34 nM	9000 nM
O=C(NO)c1ccc(C(=O)Nc2n[nH]c3cc(-c4cccc(Cl)c4)ccc23)cc1	69 nM	> 100000 nM
Cc1cc(C)cc(-c2ccc3c(NC(=O)c4ccc(C(=O)NO)cc4)n[nH]c3c2)c1	250 nM	> 100000 nM
COc1ccc(-c2ccc3c(NC(=O)c4ccc(C(=O)NO)cc4)n[nH]c3c2)cc1OC	33 nM	15200 nM
COc1ccc(-c2ccc3c(NC(=O)c4ccc(C(=O)NO)cc4)n[nH]c3c2)cc1	41 nM	22000 nM
O=C(NO)c1ccc(C(=O)Nc2n[nH]c3cc(-c4ccc(Cl)cc4)ccc23)cc1	281 nM	> 100000 nM
O=C(NO)c1ccc(C(=O)Nc2n[nH]c3cc(-c4ccc(Cl)c(Cl)c4)ccc23)cc1	147 nM	> 100000 nM
O=C(NO)c1ccc(C(=O)Nc2n[nH]c3cc(-c4cc(Cl)ccc4Cl)ccc23)cc1	178 nM	> 100000 nM
O=C(NO)c1ccc(C(=O)Nc2n[nH]c3cc(-c4ccc(Cl)c(F)c4)ccc23)cc1	98 nM	> 100000 nM
COc1cc(OC)cc(-c2ccc3c(NC(=O)c4ccc(C(=O)NO)cc4)n[nH]c3c2)c1	242 nM	> 100000 nM
O=C(NO)c1ccc(C(=O)Nc2n[nH]c3cc(-c4cc(Cl)cc(Cl)c4)ccc23)cc1	293 nM	> 100000 nM
O=C(NO)c1ccc(C(=O)Nc2n[nH]c3cc(-c4cccc(Cl)c4Cl)ccc23)cc1	157 nM	> 100000 nM
O=C(NO)c1ccc(C(=O)Nc2n[nH]c3cc(-c4ccc(C(F)(F)F)cc4)ccc23)cc1	103 nM	> 100000 nM
CCCOc1cccc(-c2ccc3c(NC(=O)c4ccc(C(=O)NO)cc4)n[nH]c3c2)c1	345 nM	> 100000 nM
CC(C)Oc1cccc(-c2ccc3c(NC(=O)c4ccc(C(=O)NO)cc4)n[nH]c3c2)c1	78 nM	> 100000 nM
CCCCN(Cc1ccc(C(=O)NO)cc1)C(=O)Nc1ccccc1 [NEXTURASTAT A]		1400 nM
O=C(NO)c1ccc(C(=O)Nc2n[nH]c3cc(-c4cccc(OC(F)(F)F)c4)ccc23)cc1	218 nM	> 100000 nM
COc1cccc(-c2ccc3c(NC(=O)c4ccc(C(=O)NO)cc4)n[nH]c3c2)c1	132 nM	> 100000 nM
CCN1CCN(c2ccc(C(=O)Nc3n[nH]c4cc(-c5cccc(OC)c5F)ccc34)cc2)CC1		40.5 nM
O=C(NO)c1ccc(C(=O)Nc2n[nH]c3cc(-c4ccccc4Cl)ccc23)cc1	59 nM	23000 nM
COc1ccccc1-c1ccc2c(NC(=O)c3ccc(C(=O)NO)cc3)n[nH]c2c1	40 nM	28000 nM
